Patent US8329755B2, “Methods for treating retroviral infections” (Roche Palo Alto LLC, priority 2004, dated 2012)

In the case of `Cc1cc(S(N)(=O)=O)ccc1NC(=O)Cc1ccc(Cl)c(Oc2cc(C#N)cc(C(F)(F)F)c2)c1` [Compound I-89, 2-[4-Chloro-3-(3-cyano-5-trifluoromethyl-phenoxy)-phenyl]-N-(2-methyl-4-sulfamoyl-phenyl)-acetamide], the melting point is reported as 211.6 to 214.6 °C. Work on `N#Cc1cc(Oc2cc(CC(=O)Nc3ccc(S(N)(=O)=O)cc3Cl)ccc2Cl)cc(C(F)(F)F)c1` [Compound I-90, 2-[4-Chloro-3-(3-cyano-5-trifluoromethyl-phenoxy)-phenyl]-N-(2-chloro-4-sulfamoyl-phenyl)-acetamide] yielded a melting point of 198 to 202 °C. `CCc1ccc(CC(=O)Nc2ccc(S(N)(=O)=O)cc2)cc1Oc1cc(C#N)cc(C(F)F)c1` [Compound I-91, 2-[3-(3-Cyano-5-difluoromethyl-phenoxy)-4-ethyl-phenyl]-N-(4-sulfamoyl-phenyl)-acetamide] showed a melting point of 188 to 198 °C. With `COc1ccc(CC(=O)Nc2ccc(S(N)(=O)=O)cc2)cc1Oc1cc(C#N)cc(C(F)F)c1` [Compound I-92, 2-[3-(3-Cyano-5-difluoromethyl-phenoxy)-4-methoxy-phenyl]-N-(4-sulfamoyl-phenyl)-acetamide] the melting point was 213.9 to 214.2 °C. Compound `COc1ccc(CC(=O)Nc2ccc(S(N)(=O)=O)cc2C)cc1Oc1cc(C#N)cc(C(F)F)c1` [Compound I-93, 2-[3-(3-Cyano-5-difluoromethyl-phenoxy)-4-methoxy-phenyl]-N-(2-methyl-4-sulfamoyl-phenyl)-acetamide] has a melting point of 175 to 177.2 °C. For `COc1ccc(CC(=O)Nc2ccc(S(N)(=O)=O)cc2Cl)cc1Oc1cc(C#N)cc(C(F)F)c1` [Compound I-94, N-(2-Chloro-4-sulfamoyl-phenyl)-2-[3-(3-cyano-5-difluoromethyl-phenoxy)-4-methoxy-phenyl]-acetamide], the melting point was 185 to 187.9 °C. Compound `CC(F)(F)c1cc(C#N)cc(Oc2c(Cl)ccc(CC(=O)Nc3ccc(S(N)(=O)=O)cc3)c2F)c1` [Compound I-95, 2-{4-Chloro-3-[3-cyano-5-(1,1-difluoro-ethyl)-phenoxy]-2-fluoro-phenyl}-N-(4-sulfamoyl-phenyl)-acetamide] has a melting point of 207 to 209.8 °C. Compound `Cc1cc(S(N)(=O)=O)ccc1NC(=O)Cc1ccc(Cl)c(Oc2cc(C#N)cc(C(C)(F)F)c2)c1F` [Compound I-96, 2-{4-Chloro-3-[3-cyano-5-(1,1-difluoro-ethyl)-phenoxy]-2-fluoro-phenyl}-N-(2-methyl-4-sulfamoyl-phenyl)-acetamide] has a melting point of 198.5 to 201 °C. In the case of `CC(F)(F)c1cc(C#N)cc(Oc2c(Cl)ccc(CC(=O)Nc3ccc(S(N)(=O)=O)cc3Cl)c2F)c1` [Compound I-97, 2-{4-Chloro-3-[3-cyano-5-(1,1-difluoro-ethyl)-phenoxy]-2-fluoro-phenyl}-N-(2-chloro-4-sulfamoyl-phenyl)-acetamide], the melting point is reported as 192 to 197.6 °C. With `CCC(=O)N(C)S(=O)(=O)c1ccc(NC(=O)Cc2ccc(Cl)c(Oc3cc(Cl)cc(C#N)c3)c2F)c(C)c1` [Compound I-99, 2-[4-Chloro-3-(3-chloro-5-cyano-phenoxy)-2-fluoro-phenyl]-N-[2-methyl-4-(methyl-propionyl-sulfamoyl)-phenyl]-acetamide] the melting point was 212 to 216.9 °C. Work on `N#Cc1cc(Cl)cc(Oc2c(Cl)ccc(CC(=O)Nc3ccc(S(N)(=O)=O)cc3Cl)c2F)c1` [Compound I-100, 2-[4-Chloro-3-(3-chloro-5-cyano-phenoxy)-2-fluoro-phenyl]-N-(2-chloro-4-sulfamoyl-phenyl)-acetamide] yielded a melting point of 234.4 to 234.9 °C. For `COc1cc(CC(=O)Nc2ccc(S(N)(=O)=O)cc2)cc(Oc2cc(C#N)ccc2Cl)c1` [Compound I-102, 2-[3-(2-Chloro-5-cyano-phenoxy)-5-methoxy-phenyl]-N-(4-sulfamoyl-phenyl)-acetamide], the melting point was 180.5 to 181.3 °C. Work on `COc1cc(CC(=O)Nc2ccc(S(N)(=O)=O)cc2C)cc(Oc2cc(C#N)ccc2Cl)c1` [Compound I-103, 2-[3-(2-Chloro-5-cyano-phenoxy)-5-methoxy-phenyl]-N-(2-methyl-4-sulfamoyl-phenyl)-acetamide] yielded a melting point of 179.8 to 184 °C. `CCc1cc(CC(=O)Nc2ccc(S(N)(=O)=O)cc2C)cc(Oc2cc(C#N)ccc2Cl)c1` [Compound I-106, 2-[3-(2-Chloro-5-cyano-phenoxy)-5-ethyl-phenyl]-N-(2-methyl-4-sulfamoyl-phenyl)-acetamide] showed a melting point of 231.6 to 233.1 °C. `CCc1cc(CC(=O)Nc2ccc(S(N)(=O)=O)cc2Cl)cc(Oc2cc(C#N)ccc2Cl)c1` [Compound I-107, 2-[3-(2-Chloro-5-cyano-phenoxy)-5-ethyl-phenyl]-N-(2-chloro-4-sulfamoyl-phenyl)-acetamide] gave a melting point of 204 to 207 °C. Compound `CNS(=O)(=O)c1ccc(NC(=O)Cc2ccc(Cl)c(Oc3cc(Cl)cc(C#N)c3)c2F)c(C)c1` [Compound I-108, 2-[4-Chloro-3-(3-chloro-5-cyano-phenoxy)-2-fluoro-phenyl]-N-(2-methyl-4-methylsulfamoyl-phenyl)-acetamide] has a melting point of 204.4 to 207.3 °C. In the case of `N#Cc1cc(Cl)cc(Oc2c(Br)ccc(CC(=O)Nc3ccc(S(N)(=O)=O)cc3Cl)c2F)c1` [Compound I-109, 2-[4-Bromo-3-(3-chloro-5-cyano-phenoxy)-2-fluoro-phenyl]-N-(2-chloro-4-sulfamoyl-phenyl)-acetamide], the melting point is reported as 165 to 166.6 °C. In the case of `Cc1ccc(CC(=O)Nc2ccc(C(=O)O)cc2Cl)c(F)c1Oc1cc(C#N)cc(C(F)F)c1` [Compound I-110, 3-Chloro-4-{2-[3-(3-cyano-5-difluoromethyl-phenoxy)-2-fluoro-4-methyl-phenyl]-acetylamino}-benzoic acid], the melting point is reported as 216.9 to 218.3 °C. `CN(C(=O)Cc1ccc(Cl)c(Oc2cc(Cl)cc(C#N)c2)c1F)c1ccccc1Cl` [Compound I-111, 2-[4-Chloro-3-(3-chloro-5-cyano-phenoxy)-2-fluoro-phenyl]-N-(2-chloro-phenyl)-N-methyl-acetamide] gave a melting point of 134 to 137.1 °C. For `Cc1ccc(CC(=O)Nc2ccc(S(C)(=O)=O)cc2Cl)c(F)c1Oc1cc(C#N)cc(C(F)F)c1` [Compound I-112, N-(2-Chloro-4-methanesulfonyl-phenyl)-2-[3-(3-cyano-5-difluoromethyl-phenoxy)-2-fluoro-4-methyl-phenyl]-acetamide], the melting point was 179.9 to 182 °C. Compound `N#Cc1cc(Oc2c(F)c(CC(=O)Nc3ccc(S(N)(=O)=O)cc3)cc(Br)c2Br)cc(C(F)F)c1` [Compound I-114, 2-[4,5-Dibromo-3-(3-cyano-5-difluoromethyl-phenoxy)-2-fluoro-phenyl]-N-(4-sulfamoyl-phenyl)-acetamide] has a melting point of 144 to 147 °C. `Cc1cc(S(=O)(=O)N2CCSCC2)ccc1NC(=O)Cc1ccc(C)c(Oc2cc(Cl)cc(C#N)c2)c1` [Compound I-117, 2-[3-(3-Chloro-5-cyano-phenoxy)-4-methyl-phenyl]-N-[2-methyl-4-(thiomorpholine-4-sulfonyl)-phenyl]-acetamide] showed a melting point of 151.9 to 155.3 °C. Work on `Cc1cc(S(=O)(=O)NCCN2CCOCC2)ccc1NC(=O)Cc1ccc(C)c(Oc2cc(Cl)cc(C#N)c2)c1` [Compound I-118, 2-[3-(3-Chloro-5-cyano-phenoxy)-4-methyl-phenyl]-N-[2-methyl-4-(2-morpholin-4-yl-ethylsulfamoyl)-phenyl]-acetamide] yielded a melting point of 177 to 181 °C. Compound `Cc1cc(S(N)(=O)=O)ccc1NC(=O)Cc1ccc(Cl)c(Oc2cc(C#N)cc(C(F)(F)F)c2)c1F` [Compound I-120, 2-[4-Chloro-3-(3-cyano-5-trifluoromethyl-phenoxy)-2-fluoro-phenyl]-N-(2-methyl-4-sulfamoyl-phenyl)-acetamide] has a melting point of 212 to 216.1 °C. For `Cc1cc(S(=O)(=O)NC2CCC(O)CC2)ccc1NC(=O)Cc1ccc(C)c(Oc2cc(Cl)cc(C#N)c2)c1` (centres unmarked) [Compound I-121, 2-[3-(3-Chloro-5-cyano-phenoxy)-4-methyl-phenyl]-N-[4-(4-hydroxy-cyclohexylsulfamoyl)-2-methyl-phenyl]-acetamide], the melting point was 195.1 to 197.7 °C. Compound `Cc1cc(S(N)(=O)=O)ccc1NC(=O)Cc1ccc(C)c(Oc2cc(Cl)cc(C#N)c2)c1` [Compound I-122, 2-[3-(3-Chloro-5-cyano-phenoxy)-4-methyl-phenyl]-N-(2-methyl-4-sulfamoyl-phenyl)-acetamide] has a melting point of 192.8 to 194.1 °C. For `Cc1ccc(CC(=O)Nc2ccc(S(N)(=O)=O)cc2Cl)cc1Oc1cc(Cl)cc(C#N)c1` [Compound I-123, 2-[3-(3-Chloro-5-cyano-phenoxy)-4-methyl-phenyl]-N-(2-chloro-4-sulfamoyl-phenyl)-acetamide], the melting point was 194 to 194.9 °C. Compound `Cc1cc(C#N)cc(Oc2c(Cl)ccc(CC(=O)Nc3ccc(S(N)(=O)=O)cc3C)c2F)n1` [Compound I-124, 2-[4-Chloro-3-(4-cyano-6-methyl-pyridin-2-yloxy)-2-fluoro-phenyl]-N-(2-methyl-4-sulfamoyl-phenyl)-acetamide] has a melting point of 230.1 to 230.7 °C. `Cc1cc(S(=O)(=O)CCC(=O)O)ccc1NC(=O)Cc1ccc(C)c(Oc2cc(Cl)cc(C#N)c2)c1` [Compound I-125, 3-(4-{2-[3-(3-Chloro-5-cyano-phenoxy)-4-methyl-phenyl]-acetylamino}-3-methyl-benzenesulfonyl)-propionic acid] showed a melting point of 74.3 to 76.5 °C. `CC(C)[C@H](N)C(=O)NS(=O)(=O)c1ccc(NC(=O)Cc2ccc(Cl)c(Oc3cc(Cl)cc(C#N)c3)c2F)c(Cl)c1.[Na]` [Compound I-127, N-[4-((S)-2-Amino-3-methyl-butyrylsulfamoyl)-2-chloro-phenyl]-2-[4-chloro-3-(3-chloro-5-cyano-phenoxy)-2-fluoro-phenyl]-acetamide; sodium salt] gave a melting point of 219.4 to 220.2 °C. Work on `Cc1cc(S(=O)(=O)NC2CCOCC2)ccc1NC(=O)Cc1ccc(C)c(Oc2cc(Cl)cc(C#N)c2)c1` [Compound I-128, 2-[3-(3-Chloro-5-cyano-phenoxy)-4-methyl-phenyl]-N-[2-methyl-4-(tetrahydro-pyran-4-ylsulfamoyl)-phenyl]-acetamide] yielded a melting point of 171.7 to 172.6 °C. In the case of `Cc1cc(S(=O)(=O)NCC(C)O)ccc1NC(=O)Cc1ccc(C)c(Oc2cc(Cl)cc(C#N)c2)c1` (centres unmarked) [Compound I-129, 2-[3-(3-Chloro-5-cyano-phenoxy)-4-methyl-phenyl]-N-[4-(2-hydroxy-propylsulfamoyl)-2-methyl-phenyl]-acetamide], the melting point is reported as 172.2 to 173.4 °C.
